The record followed here is patent US7652047B2, “Phenylamino isothiazole carboxamidines as MEK inhibitors” (Ardea Biosciences, Inc., priority 2005, dated 2010).

Molecules are shown by their SMILES. Read-outs that look alike come from different tables or passages of the source. Where only a bound is given, the exact number is not on record here.

The assay deals with T1, MEK1^CA (human GST-MEK1, constitutively active, Ser218Asp and Ser222Asp) (Homo sapiens, UniProt Q02750, S218D/S222D).
T1 construct: GST; made in house; host or cells: Escherichia coli
T1 sequence (Q02750 whole entry S218D/S222D): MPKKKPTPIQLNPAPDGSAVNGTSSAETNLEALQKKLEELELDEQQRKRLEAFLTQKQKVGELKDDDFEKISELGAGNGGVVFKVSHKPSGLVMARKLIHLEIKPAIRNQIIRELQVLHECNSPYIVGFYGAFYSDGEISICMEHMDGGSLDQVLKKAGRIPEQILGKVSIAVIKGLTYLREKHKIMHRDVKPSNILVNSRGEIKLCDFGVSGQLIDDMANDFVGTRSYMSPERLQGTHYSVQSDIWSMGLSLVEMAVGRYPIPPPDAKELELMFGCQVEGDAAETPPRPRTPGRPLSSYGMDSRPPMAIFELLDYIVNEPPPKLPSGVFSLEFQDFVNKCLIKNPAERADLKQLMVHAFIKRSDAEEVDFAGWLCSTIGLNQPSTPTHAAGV
As to the kind of experiment: MEK1 enzymatic activity assay (MEK1^CA / ERK2 / MBP, [γ-33P]ATP incorporation). Format: biochemical. In short, it runs like this:
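Cascade assay: 25 µl reactions with 0.002 nmol E. coli-expressed GST-MEK1 S218D/S222D, 0.02 nmol His-tagged mouse ERK2, 0.25 nmol MBP, 0.25 nmol unlabeled ATP and 0.1 µCi [γ-33P]ATP. Compound preincubated 30 min at ambient temperature with MEK1/ERK2; stopped with TCA, 33P-labelled protein filter-captured and scintillation-counted.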

Where [1] appears, read: Table 1, compounds of formula I, read-out: Avg IC50.
The mark [2] stands for this setting: Table 2, Ar1-A contains an amido or indolo group, read-out: IC 50.

In the case of `N=C(NCCCCCCO)c1c(O)nsc1Nc1ccc(Oc2ccccc2)cc1` [compound 32], the IC50 under setting [1] was in the range of 1 to 100 nM.
On the same count and under the same terms, with `CC(C)NC(=N)c1c(O)nsc1Nc1ccc(Oc2cc(F)ccc2Cl)cc1` [compound 308] the figure was 100 to 500 nM; with `N=C(NN1CCCCC1)c1c(O)nsc1Nc1ccc(Oc2cc(F)cc(F)c2)cc1` [compound 435], 1 to 100 nM.
Same read-out and setting: with `N=C(NC1CCCC1)c1c(O)nsc1Nc1ccc(Oc2ccccc2)cc1` [Cpd 12] the figure was 1 to 100 nM; with `CC(C)NC(=N)c1c(O)nsc1Nc1ccc(Oc2ccc(F)cc2)c(Br)c1` [compound 242], 100 to 500 nM; with `CC(CO)N=C(N)c1c(O)nsc1Nc1ccc(Oc2cc(C(F)(F)F)ccc2I)cc1` (centres unmarked) [compound 385], 1 to 100 nM.
The same measure, in the same setting: the same measure for `N=C(NCCN1CCOCC1)c1c(Nc2ccc(Oc3ccccc3)cc2)s[nH]c1=O` [Cpd 26]: more than 500 nM; for `CC(C)NC(=N)c1c(O)nsc1Nc1ccc(Oc2cc(C(F)(F)F)ccc2Cl)cc1F` [compound 384]: 100 to 500 nM; for `N=C(NCC(O)CO)c1c(O)nsc1Nc1cccc(Cl)c1` (centres unmarked) [compound 75]: 100 to 500 nM.
With `CC(CO)NC(=N)c1c(O)nsc1Nc1ccc(Oc2ccc(C(F)(F)F)cc2)c(F)c1` (centres unmarked) [compound 378], the IC50 under setting [1] was in the range of 100 to 500 nM.
Still for that read-out and setting: the same measure for `CCOC(=O)N1CCC(NC(=N)c2c(O)nsc2Nc2ccc(Oc3ccccc3)cc2)CC1` [compound 30]: 100 to 500 nM; for `CC(C)NC(=N)c1c(O)nsc1Nc1ccc(Oc2cccc3ccccc23)cc1` [compound 340]: 1 to 100 nM; for `CC(C)NC(=N)c1c(O)nsc1Nc1ccc(Oc2cccc(C(F)(F)F)c2)cc1` [compound 275]: 1 to 100 nM.
Same read-out and setting: with `N=C(NN1CCOCC1)c1c(O)nsc1Nc1ccc(Oc2cc(F)cc(F)c2)cc1` [compound 436] the figure was 100 to 500 nM; with `Cc1ccc(F)c(Oc2ccc(Nc3snc(O)c3C(=N)NC(C)CO)cc2)c1` (centres unmarked) [compound 348], 1 to 100 nM; with `CC(CO)NC(=N)c1c(O)nsc1Nc1ccc(Oc2cccc3ccccc23)cc1` (centres unmarked) [compound 338], 1 to 100 nM.
Still for that read-out and setting: with `N=C(NCC(O)CO)c1c(O)nsc1Nc1ccc(Oc2ccccc2C(=O)NCC(O)CO)cc1` (centres unmarked) [compound 508] the figure was more than 500 nM; with `CC(CO)NC(=N)c1c(O)nsc1Nc1ccc(Oc2cccc(F)c2F)nc1` (centres unmarked) [compound 432], 100 to 500 nM; with `N=C(NCC1CCCO1)c1c(O)nsc1Nc1ccc(Oc2cc(F)cc(F)c2)cc1` (centres unmarked) [compound 414], 1 to 100 nM.
As for `CNC(=N)c1c(O)nsc1Nc1ccc(C(=O)N2CCc3cc(Cl)ccc32)cc1` [E-21], under setting [2], the IC50 lay within 200 to 1000 nM.
`CCOC(=O)c1ccccc1Oc1ccc(Nc2snc(O)c2C(=N)NC(C)CO)cc1` (centres unmarked) [compound 494]: the IC50 under setting [1] lay in the range of 1 to 100 nM.
Still for that read-out and setting: the same measure for `CC(CO)NC(=N)c1c(O)nsc1Nc1cc(Cl)cc(Cl)c1` (centres unmarked) [compound 233]: 100 to 500 nM.
Same read-out and setting: the same measure for `CC(O)CNC(=N)c1c(O)nsc1Nc1cc(F)c(Oc2cc(Cl)ccc2Cl)cc1F` (centres unmarked) [compound 478]: 1 to 100 nM; for `Cc1cc(Nc2snc(O)c2C(=N)NC(C)C)ccc1Oc1cc(F)ccc1Cl` [compound 380]: 100 to 500 nM.
Still for that read-out and setting: with `N=C(NCC1CCCCC1)c1c(O)nsc1Nc1ccc(OC(F)F)cc1` [compound 95] the figure was more than 500 nM; with `Cc1ccc(Cl)cc1Oc1ccc(Nc2snc(O)c2C(=N)NC(C)CO)cc1` (centres unmarked) [compound 304], 1 to 100 nM; with `CCC[C@H]1CC[C@H](c2ccc(Nc3s[nH]c(=O)c3C(N)=NCC(O)CO)cc2)CC1` (some centres unmarked) [compound 63], 100 to 500 nM.
For `N=C(NCC1CCCCC1)c1c(O)nsc1Nc1ccc(Sc2ccc([N+](=O)[O-])cc2)cc1` [drawing 831], the IC50 (Table 4, R' is (CH2)1 or 2-G, read-out: IC50) lay in the range of 100 to 500 nM.
On to `CC(C)NC(=N)c1c(O)nsc1Nc1ccc(Oc2ccc(Cl)cc2)cc1` [compound 183], for which, under setting [1], the IC50 is 1 to 100 nM.
As to `CNC(=N)c1c(O)nsc1Nc1ccc(Oc2ccc(F)cc2)c(Br)c1` [compound 230], the IC50 under setting [1] was more than 500 nM.
Regarding `CC(CO)NC(=N)c1c(O)nsc1Nc1ccc(Oc2cc(C(F)(F)F)cc(C(F)(F)F)c2)cc1` (centres unmarked) [compound 332], under setting [1], the IC50 lay in the range of 100 to 500 nM.
On the same count and under the same terms, with `CC(CNC(=N)c1c(O)nsc1Nc1ccc(Oc2ccccc2)cc1)c1ccccc1` (centres unmarked) [Cpd 15] the figure was 1 to 100 nM; with `CC(C)NC(=N)c1c(O)nsc1Nc1ccc(Oc2cccc(F)c2)c(F)c1` [compound 363], more than 500 nM; with `CC(C)(C)C(CO)NC(=N)c1c(O)nsc1Nc1ccc(Oc2ccccc2)cc1` (centres unmarked) [compound 180], 100 to 500 nM.
For `Cc1ccccc1Oc1ccc(Nc2snc(O)c2C(=N)NC(C)CO)cc1C` (centres unmarked) [compound 325], under setting [1], the IC50 was more than 500 nM.
Same read-out and setting: the same measure for `CCC(CO)NC(=N)c1c(O)nsc1Nc1ccc(Oc2cccc(F)c2F)cc1C` (centres unmarked) [compound 504]: 100 to 500 nM; for `Cc1cc(Oc2cc(F)cc(F)c2)ccc1Nc1snc(O)c1C(=N)NO` [compound 465]: 100 to 500 nM; for `Cc1cc(Oc2cc(Cl)ccc2Cl)ccc1Nc1snc(O)c1C(=N)NC(C)CO` (centres unmarked) [compound 461]: 1 to 100 nM.
Same read-out and setting: with `CC(CO)NC(=N)c1c(O)nsc1Nc1ccc(Oc2ccc(F)cc2)c(Br)c1` (centres unmarked) [compound 209] the figure was 100 to 500 nM.
On the same count and under the same terms, with `N=C(N[C@@H]1CCCC[C@H]1O)c1c(O)nsc1Nc1ccc(Oc2ccccc2)cc1` [compound 167] the figure was 100 to 500 nM.
With `N=C(NCCO)c1c(O)nsc1Nc1ccc(C(=O)Nc2ccccc2)cc1` [E-8], the IC50 under setting [2] lay in the range of 200 to 1000 nM.
As to `N=C(NCC(O)O)c1c(O)nsc1Nc1ccc(Oc2ccc(F)cc2)cc1` [compound 203], under setting [1], the IC50 is more than 500 nM.
Turning to `N=C(NCC1CCCCC1)c1c(O)nsc1Nc1ccc(OCc2ccccc2)cc1` [compound 61], the IC50 under setting [1] is 100 to 500 nM.
On the same count and under the same terms, the same measure for `CCOC(=O)c1cccc(Nc2snc(O)c2C(=N)NC(C)C)c1` [compound 488]: more than 500 nM; for `CC(CO)NC(=N)c1c(O)nsc1Nc1ccc(-n2cccn2)cc1` (centres unmarked) [compound 315]: more than 500 nM.
On to `CNC(=N)c1c(O)nsc1Nc1ccc(Oc2ccc(Cl)cc2Cl)cc1` [compound 231], for which, under setting [1], the IC50 is 100 to 500 nM.
Consider `N/C(=N\CC1CCCCC1)c1c(O)nsc1Nc1ccccc1C(=O)NCC1CCCCC1` [E-1], for which the IC50 under setting [2] is more than 1000 nM.
Turning to `N=C(NCC1CCCCC1)c1c(O)nsc1NCC1CC1` [compound 119], the IC50 under setting [1] was more than 500 nM.
Same read-out and setting: with `CC(C)N(O)C(=N)c1c(O)nsc1Nc1ccc(Oc2cc(Cl)ccc2Cl)cc1` [compound 455] the figure was 1 to 100 nM; with `CCOC(=O)c1ccc(Oc2ccc(Nc3snc(O)c3C(=N)NC(C)CO)cc2)cc1` (centres unmarked) [compound 497], 1 to 100 nM; with `N=C(NCCO)c1c(O)nsc1Nc1ccc(Oc2ccccc2)cc1` [compound 33], 1 to 100 nM.
Still for that read-out and setting: with `CC(C)NC(=N)c1c(O)nsc1Nc1ccc(Oc2cccnc2)c(Cl)c1` [compound 336] the figure was more than 500 nM; with `CCC[C@H]1CC[C@H](c2ccc(Nc3snc(O)c3C(=N)NC(C)C)cc2)CC1` [compound 160], 100 to 500 nM; with `Oc1nsc(Nc2ccc(Oc3ccccc3)cc2)c1-c1nnn[nH]1` [compound 136], more than 500 nM.
The same measure, in the same setting: the same measure for `N=C(NCc1ccccn1)c1c(O)nsc1Nc1ccc(Oc2ccccc2)cc1` [compound 38]: 100 to 500 nM; for `Cc1cc(Oc2cc(Cl)ccc2Cl)ccc1Nc1snc(O)c1C(=N)NC(C)C` [compound 460]: 1 to 100 nM; for `C[C@H](CO)NC(=N)c1c(O)nsc1Nc1ccc(Oc2ccccc2)cc1` [compound 175]: 1 to 100 nM.
Turning to `CC(NC(=N)c1c(O)nsc1Nc1ccc(Oc2ccccc2)cc1)c1ccc(F)cc1` (centres unmarked) [compound 29], under setting [1], the IC50 lay in the range of 100 to 500 nM.
In the case of `CC(C)NC(=N)c1c(O)nsc1Nc1ccc2c(c1)Cc1ccccc1-2` [compound 227], the IC50 under setting [1] is more than 500 nM.
Still for that read-out and setting: the same measure for `Cc1ccc(Nc2snc(O)c2C(=N)NCCN2CCOCC2)cc1` [Cpd 4]: 100 to 500 nM; for `Cc1cc(Nc2snc(O)c2C(=N)NC(C)CO)ccc1Oc1ccc(C(F)(F)F)cc1` (centres unmarked) [compound 386]: more than 500 nM.
The same measure, in the same setting: with `CC(C)NC(=N)c1c(O)nsc1Nc1ccc([C@H]2CC[C@H](OC(=O)C(C)C)CC2)cc1` [compound 197] the figure was 100 to 500 nM.
As for `N=C(NCC1CCCCC1)c1c(O)nsc1Nc1ccc(C(=O)Nc2ccccc2)cc1` [drawing 811], the IC50 (Table 3, benzamides of formula X, read-out: IC 50) was more than 500 nM.
On to `Cc1cccc(C)c1Oc1ccc(Nc2snc(O)c2C(=N)NC(C)CO)cc1F` (centres unmarked) [compound 276], for which, under setting [1], the IC50 is more than 500 nM.
Same read-out and setting: with `N=C(NCC(O)CO)c1c(O)nsc1Nc1ccc(C2CCCCC2)cc1` (centres unmarked) [compound 186] the figure was more than 500 nM; with `N=C(NCC1CCCCC1)c1c(O)nsc1Nc1ccc(N2CCCCC2)cc1` [compound 123], more than 500 nM; with `Cc1ccc(Oc2ccc(Nc3snc(O)c3C(=N)NC(C)C)cc2)cc1` [compound 246], 1 to 100 nM.
The same measure, in the same setting: with `N=C(NCCN1CCNCC1)c1c(O)nsc1Nc1ccc(Oc2ccc(Cl)cc2Cl)cc1` [compound 428] the figure was 100 to 500 nM; with `CC(CO)NC(=N)c1c(O)nsc1Nc1ccc(-c2nc3ccccc3[nH]2)cc1` (centres unmarked) [compound 509], more than 500 nM; with `CCC(CO)NC(=N)c1c(O)nsc1Nc1ccc(Oc2cccc(C(F)(F)F)c2)cc1C` (centres unmarked) [compound 473], 1 to 100 nM.
Consider `CCCNC(=N)c1c(O)nsc1Nc1ccc(Oc2ccccc2)cc1` [compound 201], for which, under setting [1], the IC50 was 100 to 500 nM.
The same measure, in the same setting: the same measure for `COc1ccc(Nc2snc(O)c2C(=N)NCc2ccc(C(F)(F)F)nc2)c(OC)n1` [compound 184]: more than 500 nM.
Take `N=C(NC1CC1)c1c(O)nsc1Nc1ccc(Oc2ccccc2)cc1` [compound 44]: under setting [1], the IC50 was more than 500 nM.
The same measure, in the same setting: the same measure for `Cn1sc(Nc2ccc(Oc3ccccc3)cc2)c(C(=N)NC2CCCC2)c1=O` [Cpd 24]: more than 500 nM.
